Laboratory results published in patent US20100120902A1, “STANDARIZED BIOACTIVE HERBAL EXTRACTS” (RANBAXY LABORATORIES LIMITED, priority 2007, published 2010).
Values after ≈ are worked out from the molar mass of the structure shown.

What was measured:
[1] = tested on: IL-2 production in human PBMCs; conditions: phytohemagglutinin stimulated; Pandey et al 2005; cited from earlier work
[2] = tested on: TNF-α production in human PBMCs; conditions: lipo-polysaccharide induced; Pandey et al 2005; cited from earlier work
[3] = tested on: nuclear factor-(kappa)B and transcription factor AP-1; conditions: Pandey et al 2005; cited from earlier work
[4] = tested on: TNF-α release from PBM cells; test: In-vitro TNF-α release inhibition assay from PBMCs (LPS, ELISA); type: cell-based; conditions: Homo sapiens, PBMC; LPS stimulated PBM cells
Protocol: (§1) Blood (20 ml) was collected from healthy volunteers in a heparanised vial with 10 ml of lymphoprep (Nycomed pharma, AS) and centrifuged at 1800 rpm for 30 minutes at 23° C., mononuclear cell containing buffy layer was transferred to another tube and washed three times with PBS (phosphate buffered saline) and centrifuged at 1500 rpm for 15 minutes. Pellet cells were resuspended in 2 ml of RPMI-1640 medium (Biochrom, AG) supplemented with 25 mM HEPES [N-(2-hydroxyethyl)piperazine-N′-(2-ethanesulfonic acid)], L-glutamine (2 mM), penicillin (100 U/ ml), streptomycin (100 μg/ml) and 10% inactivated FCS (fetal calf serum) and, finally viable cells were counted.
(§2) PBM cells were adjusted to 1×10^6 cells/ml number in RPMI 1640 medium, (Biochrom AG) and 100 μl volume of this cell suspension per well was plated in a 96 well plate. […] Twenty μl of DMSO control and each concentration of these prepared test samples were added to corresponding wells in a 96 well plate. The plate was incubated for 30 minutes at room temperature on rotatory shaker at 200 rpm and 50 μl of lipopolysacchride (LPS) (4 μg/ml) was added to each well, except negative LPS control wells. […] A dose response curve was generated with different concentrations of test sample and the IC50 was calculated using Graph Pad Prism. […]

[5] = tested on: LTB4 release from neutrophils; test: In-vitro leukotriene B4 (LTB4) release assay (A23187, ELISA); type: cell-based; conditions: Homo sapiens, Neutrophil; A23187 stimulated
Protocol: Neutrophils were isolated from freshly drawn human blood after dextran sedimentation and ficoll separation [Hatzelmann and Ullrich, Eur. J. […] Ca^++/Mg^++ (0.25 mM) was added, 3 minutes before the end of incubation with these test samples. Then, 0.3 μg/ml of A23187 (Calcimycin) was added and incubated for further 10 minutes. The reaction was stopped by adding 80 μl of cold methanol and mixture was spun at 3500 rpm for 10 minutes to remove cell debris. The samples were analyzed for LTB4 assay [Hatzelmann and Schudt, J. Pharmacol. Exp. […] (2001), 267-279] using LTB4 ELISA kits (Assay Design Inc., USA). The amount of LTB4 was quantified and percent inhibition in LTB4 release was calculated with respect to control (without test sample) to compute IC50 values.

[6] = tested on: IL-1β release from PBM cells; test: In-vitro IL-1β release inhibition assay from PBMCs (LPS, ELISA); type: cell-based; conditions: Homo sapiens, PBMC; LPS stimulated PBM cells; read-out: IC50 against IL-1β release
Protocol: as §1, §2

[7] = tested on: PBM cells (peripheral blood mononuclear cells); test: In-vitro mitogen induced lymphocyte proliferation assay (3H-thymidine uptake); type: cell-based; conditions: Homo sapiens, PBMC; 20 μg/ml
Protocol: Blood (20 ml) was collected from healthy volunteers in a […] 10 ml of lymphoprep (Nycomed pharma, AS) and centrifuged at 1800 rpm for 30 minutes at 23° C., mononuclear cell containing buffy layer was transferred to another tube and washed three times with PBS (phosphate buffered saline) and centrifuged at 1500 rpm for 15 minutes. […] PBM cells were adjusted to a concentration of 1×10^6 cells/ml in RPMI buffer (Biochrom AG) and 2×10^5 cells/well were seeded in a total volume of 200 μl to a 96 well U bottom plate. […] Cultures were incorporated with 0.5 μCi[3H], 18 hours before the completion of incubation and cells were harvested on glass fiber filter using multi-well harvester and thymidine uptake was determined by measuring radioactivity on liquid scintillation counter and the mean count per minute (CPM) of triplicate was calculated.

[8] = tested on: TNF-α, IL-1β and iNOS mRNA expression in RAW 264.7 cells; test: In-vitro effect on gene expression of inflammatory mediators (semi-quantitative RT-PCR); type: cell-based, mouse; conditions: 12 hrs incubation
supernatant cells = test: Cell viability/toxicity test (MTT assay); type: cell-based
Protocol: Viability of cells was analyzed using (3-4,5-dimethylthiazol-2-yl)-2,5-diphenyl-tetrazolium bromide (MTT) assay (Mosmann T, J Immunol. Meth., 65 (1983), 55-63) with supernatant cells by adding 0.1 mL of MTT (0.25 mg/mL) with 0.1 mL of supernatant cells. The cells were incubated at 37° C. for about 2-4 hours, and then the optical density was measured at 490-650 nm.

[9] = tested on: CFA induced arthritis in ankle joint; test: Histopathological analysis of CFA induced arthritis in ankle joint; type: in vivo, Wistar rats
Protocol: At the end of the study (p), animals were euthanized and ankle joints of contra-lateral hind limb were collected for histopathological evaluation Ankle joints were evaluated for the effect on synovial proliferation, inflammation of soft tissues, pannus formation and erosion of cartilage as well as bone (FIG. 13). The changes observed were scored as 0=no change, 1 mild, 2=moderate, 3=marked and 4=severe. The scores for each parameter mentioned above were summed to obtain total histopathological score for each animal.

[10] = tested on: CFA induced arthritis (contra-lateral paw volume); test: Antiarthritic efficacy against CFA induced arthritis model; type: in vivo, Wistar rats; conditions: 0.2 mg/kg/day
Protocol: Wistar rats were injected with 50 μL of 1 mg/ml solution of Complete Freund's adjuvant (CFA) subplantarly. […] The animals showing 0.30-0.40 ml increase in paw volume of the contralateral paw from the basal were included in the study.
The test sample or vehicle (polyethylene glycol+water 20:80) was administered in two divided doses for 10 days. The paw volume of the animals was recorded on the alternate days. A plot of change in paw volume from day 0 was made and area under the curve (AUC) was calculated using GraphPad Prism software (GraphPad Software Inc, USA, Version 4) for each animal and was averaged in each treatment group.

[11] = tested on: carrageenan induced hyperalgesia; test: Analgesic efficacy against carrageenan induced hyperalgesia; type: in vivo, wistar rats; conditions: 5 mg/kg oral, after 2 hours
CFA induced hyperalgesia = test: Antihyperalgesic activity against Complete Freund's adjuvant (CFA) induced hyperalgesia; type: in vivo, rats; conditions: 5 mg/kg oral, 2 hours post treatment
Protocol: Basal weight bearing threshold of the rats was determined using Randall Selitto analgesiometer (Ugo Basile, Italy) followed by challenge with Complete Freund's adjuvant (a suspension of desiccated Mycobacterium butyricum in a mixture of paraffin oil and an emulsifying agent, mannide monooleate; 50 μL of 500 μg/ml suspension/animal), injected subplantarly. Twenty four hours later weight-bearing threshold of the animals was recorded as pre-dose values at time 0 hours. […] Two hours post treatment, weight-bearing threshold of the animals was recorded again. […] One group was treated with Incomplete Freund's adjuvant (IFA) and served as negative control group.

[12] = tested on: carrageenan induced paw edema; test: Anti-inflammatory efficacy against carrageenan induced paw edema model; type: in vivo, rats; conditions: 5 mg/kg oral, 3 hours post carrageenan
Protocol: One hour later, animals were challenged with carrageenan (1% w/v, 100 μL/rat) subplantarly. The paw edema was recorded 3 hours post carrageenan challenge. Data from each group was expressed as mean±SEM. Change in paw edema in treatment group were compared from vehicle control group using one-way ANOVA followed by Dunnett's multiple comparison test. A p≦0.05 was considered statistically significant.

[13] = tested on: formalin induced Phase I and Phase II pain; test: Analgesic efficacy against formalin test; type: in vivo, mice; conditions: 10 mg/kg i.p.
Protocol: Thirty minutes later, formalin solution (1% w/v, 25 μL/mice) was injected subplantarly in mice and immediately after injection, duration of mice licking or flicking of the injected paw was recorded for a period of 30 minutes in 5 minute slots. The first five minutes duration constitutes Phase-I pain which is centrally mediated while Phase-II pain which lasts from 10-30 minutes is peripherally mediated pain. Values of each group were expressed as mean±SEM (standard error of mean) and comparison was made with control group using one-way ANOVA followed by Dunnett's multiple test and a p≦0.05 was considered statistically significant.

[14] = tested on: LPS induced TNF-α release (plasma); test: Anti-inflammatory efficacy against endotoxemia; type: in vivo, female Balb/C mice; conditions: 10 mg/kg oral
Excerpt: One hour later, animals were challenged with LPS (lipopolysacchride). Ninety minutes later, blood was collected and TNF-α was estimated in the plasma using ELISA kit and values for each treatment group was expressed as mean±SEM. Comparison was made with control group using one-way ANOVA followed by Dunnett's multiple test and a p≦0.05 was considered statistically significant.

Structure (SMILES): COc1cc2oc(-c3ccc(O)cc3)c(OC3OC(CO)C(O)C(O)C3O)c(=O)c2c(O)c1OC [Bd-I, eupalitin-3-O-beta-D-galactopyranoside]
- production of IL-2 at the protein and mRNA transcript levels [1]: inhibited
- TNF-α production [2]: inhibited
- activation of DNA binding of nuclear factor-(kappa)B and AP-1 [3]: block the activation of DNA binding

Structure (SMILES): Cc1c(O)cc2oc3c(c(=O)c2c1O)-c1ccccc1OC3O (centres unmarked) [Boeravinone B]
- IC50 [4]: 6.8 µg/mL (≈ 21.8 µM)
- IC50 [5]: > 100 µg/mL
- IC50 [6]: 3.6 µg/mL (≈ 11.5 µM)
- inhibition at 20 µg/mL [7]: 66%
- expression of TNF-α, IL-1β and iNOS [8]: down regulated all the 3 inflammatory mediators
- concentration at 50% viability of tested cells (supernatant cells): 64.5 µg/mL

Structure (SMILES): Cc1c(O)cc2oc3c(c(=O)c2c1O)-c1ccc(O)cc1OC3O (centres unmarked) [Boeravinone E]
- IC50 [4]: 7 µg/mL (≈ 21.3 µM)
- IC50 [5]: 21.8 µg/mL (≈ 66.4 µM)
- IC50 [6]: 7 µg/mL (≈ 21.3 µM)
- inhibition at 20 µg/mL [7]: 59%
- expression of TNF-α, IL-1β and iNOS [8]: down regulated all the 3 inflammatory mediators
- concentration at 50% viability of tested cells (supernatant cells): 81.5 µg/mL

Structure (SMILES): COc1ccc2c(c1)c(CC(=O)O)c(C)n2C(=O)c1ccc(Cl)cc1 [Indomethacin]
- % inhibition (histopathological score) ([9]; 0.2 mg/kg): 62.8%
- recruitment of inflammatory cells ([9]; 0.2 mg/kg/day, FIG. 13 A): completely prevented the recruitment of inflammatory cells
- Pannus formation ([9]; 0.2 mg/kg/day, FIG. 13 B): mild
- inhibitory effect on cartilage degradation ([9]; 0.2 mg/kg/day, FIG. 13 C): prominent
- paw edema [10]: reversal of the paw edema toward basal level
- inhibition (carrageenan induced hyperalgesia) [11]: 66%
- reversal of the hyperalgesia induced by CFA (CFA induced hyperalgesia): 64%
- inhibition of carrageenan induced paw edema [12]: 48%

Structure (SMILES): CC(C)=CCN1CCC2(C)c3cc(O)ccc3CC1C2C (centres unmarked) [Pentazocin]
- percent protection in Phase-I pain [13]: 40%
- percent protection in Phase-II pain [13]: 50%

Structure (SMILES): O=c1ncn2nc(Sc3ccc(F)cc3F)ccc2c1-c1c(Cl)cccc1Cl [Vx745]
- inhibition of LPS response (TNF-α) [14]: 59%
